Assays:
LRRK2 (G2019S) = LRRK2 (G2019S) (Homo sapiens, UniProt Q5S007, G2019S); experiment: LRRK2 G2019S enzyme inhibition, ADP-Glo kinase assay; type: biochemical; set-up: purchased SignalChem L10-12GG
Procedure, shortened: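 Activity read as ADP-Glo luminescence, normalized to untreated solvent control, with IC50 (nM) fitted over 12 final compound levels (top 50 μM). Reaction: 2 h, 25° C, human LRRK2 G2019S 16 ng, ATP 25 μM, substrate 0.2 μg, in Tris-HCl pH 7.4 with MgCl2, BSA and DTT.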

SHP-77 = SHP-77 cancer cell proliferation inhibition (Cell Titer-Glo); type: cell-based; conditions: Homo sapiens, SHP77, SHP-77 small cell lung cancer cell line, 72 hours
Procedure, shortened: (§1)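 GI50 comes from CellTiter-Glo luminescence, read 10 min after reagent addition at RT, following 72 h compound treatment. Eleven concentrations were used (⅓ steps, highest 10 μM final) on 2000 cells/well. MDA-MB-231 and MDA-MB-468 were grown in DMEM, SHP-77 in RPMI.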

human DYRK1A and Tau = experiment: Tau phosphorylation inhibition, ClariCELL Kinase Cell-Based Assay (Carnabio)
Procedure, shortened: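 HEK293 cells transiently expressing human DYRK1A and Tau were exposed to compound, then lysed. Released Tau was captured on plate and its phosphorylation quantified by ELISA with a phospho-Tau-specific antibody.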

[1] = molecular target: T1, LRRK2, LRRK2 (G2019S), DYRK1, CLK1 and TTK kinases (Homo sapiens, UniProt Q5S007); experiment: Enzyme IC50 by Kinase HotSpot service (Reaction Biology Corporation), values marked with *; type: biochemical; conditions: LRRK2, ATP 10 uM
T1 construct: LRRK2 IC50 (marked with *); other: LRRK2; Kinase HotSpot service (Reaction Biology), ATP 10 uM
Experimental: (§2) Meanwhile, the enzyme IC50 measurement for some compounds was performed using Kinase HotSpot service (Reaction Biology Corporation); during the test, the ATP concentration was 10 uM, where all were conducted under the same condition; and the concentration of the compound was measured by giving a 3-fold concentration gradient with the highest concentration of […], where the values measured using Kinase HotSpot service (Reaction Biology Corporation) were marked with “*”.
(§3) All experimental methods were performed as provided in Kinase HotSpot Customer Protocol (http://www.reactionbiology.com//Kinase_Assay_Protocol).
(§4) In the table below, the following designations were used for the evaluation of enzyme inhibitory ability.

[2] = molecular target: T2, LRRK2, LRRK2 (G2019S), DYRK1, CLK1 and TTK kinases (Homo sapiens, UniProt Q13627); experiment: as above; type: biochemical; conditions: DYRK1, ATP 10 uM
T2 construct: other: DYRK1; Kinase HotSpot service (Reaction Biology), ATP 10 uM
Experimental: as §2, §3, §4

[3] = molecular target: T3, LRRK2, LRRK2 (G2019S), DYRK1, CLK1 and TTK kinases (Homo sapiens, UniProt P49759); experiment: as above; type: biochemical; conditions: CLK1, ATP 10 uM
T3 construct: CLK1 IC50 (marked with *); other: CLK1; Kinase HotSpot service (Reaction Biology), ATP 10 uM
Experimental: as §2, §3, §4

MDA-MB-231 cell line = experiment: MDA-MB-231 cancer cell proliferation inhibition (Cell Titer-Glo); type: cell-based; conditions: Homo sapiens, MDA-MB-231 triple-negative breast cancer cell line, 72 hours
Procedure, shortened: as §1

MDA-MB-468 cell line = experiment: MDA-MB-468 cancer cell proliferation inhibition (Cell Titer-Glo); type: cell-based; conditions: Homo sapiens, MDA-MB-468 triple-negative breast cancer cell line, 72 hours
Experimental: In order to evaluate the cancer cell proliferation inhibitory activity of the compounds of the present invention, the following experiments were performed.
To evaluate the cancer cell proliferation inhibitory effect, the cell growth rate analysis was performed while culturing MDA-MB-231 cell line (Korean Cell Line Bank #30026) and MDA-MB-468 cell line as the triple-negative breast cancer cell line, and SHP-77 (ATCC #CRL-2195) as the small cell lung cancer cell line in DMEM (HyClone #SH30243) and RPMI medium (HyClone #SH3027.01), respectively. More specifically, the cell lines were each plated at 2000 cells/100 μl in each well of a 96-well flat-bottom plate (coming #3903), and then the example compounds having eleven concentrations which were diluted by ⅓ so that the final concentrations were 10.000000, 3.333333, 1.111111, 0.370370, 0.123457, 0.041152, 0.013717, 0.004572, 0.001524, 0.000508 and 0.000169 μM were treated. After 72 hours, 100 μl of Cell Titer-Glo (Promega G7573) was treated, incubated at RT for 10 minutes, and then luminescence was measured using a microplate reader. The measured luminescence degree was calculated as GI50 using Prism (version 8.2 GraphPad) software.
In the table below, the following designations were used for the evaluation of proliferation inhibitory activity.

[4] = molecular target: T4, human GST-DYRK1A (full length) (Homo sapiens, UniProt Q13627); experiment: GST-DYRK1A enzyme inhibition, ADP-Glo kinase assay; type: biochemical; conditions: read-out: DYRK1 IC50
T4 construct: purified human GST-DYRK1A (full length, Thermo scientifics) enzyme; GST; purchased Thermo scientifics
Procedure, shortened: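 ADP-Glo luminescence quantified kinase activity after a 1 h, 25° C reaction of 10 ng full-length GST-tagged human DYRK1A, substrate and 10 uM ATP in Tris-HCl buffer pH 7.4 with MgCl2, BSA and DTT. Triplicate IC50 values (nM) calculated relative to untreated solvent control.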

LRRK2 = LRRK2 (Homo sapiens, UniProt Q5S007); experiment: LRRK2 enzyme inhibition, ADP-Glo kinase assay; type: biochemical; set-up: purchased Invitrogen PR8604B
Procedure, shortened: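 ADP-Glo luminescence read after 2 h at 25° C, 10 μM ATP, 25 ng purified human LRRK2 and […] substrate in Tris-HCl pH7.4 buffer with MgCl2, BSA, DTT. Twelve final concentrations, 50 μM down to 0.000001024 μM; IC50 (nM) from inhibition relative to untreated solvent control.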

human GST-CLK1 (129-end) = molecular target: T5, human GST-CLK1 (129-end) (Homo sapiens, UniProt P49759); experiment: GST-CLK1 enzyme inhibition, ADP-Glo kinase assay; type: biochemical; conditions: ATP 10 uM
T5 construct: purified human GST-CLK1 (129-end, Signalchem) enzyme; GST; purchased Signalchem
Procedure, shortened: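 ADP formation was read by ADP-Glo luminescence after 1 h at 25° C with 3 ng human GST-CLK1 (129-end), substrate and 10 uM ATP in Tris pH 7.4 buffer containing MgCl2, BSA and DTT. Inhibition relative to untreated solvent control gave IC50 (nM), run in triplicate.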

TTK = molecular target: T6, TTK (Homo sapiens, UniProt P33981); experiment: TTK enzyme inhibition, ADP-Glo kinase assay; type: biochemical; set-up: purchased Signalchem T20-10G; conditions: ATP 5 μM
T6 sequence (P33981 1-857): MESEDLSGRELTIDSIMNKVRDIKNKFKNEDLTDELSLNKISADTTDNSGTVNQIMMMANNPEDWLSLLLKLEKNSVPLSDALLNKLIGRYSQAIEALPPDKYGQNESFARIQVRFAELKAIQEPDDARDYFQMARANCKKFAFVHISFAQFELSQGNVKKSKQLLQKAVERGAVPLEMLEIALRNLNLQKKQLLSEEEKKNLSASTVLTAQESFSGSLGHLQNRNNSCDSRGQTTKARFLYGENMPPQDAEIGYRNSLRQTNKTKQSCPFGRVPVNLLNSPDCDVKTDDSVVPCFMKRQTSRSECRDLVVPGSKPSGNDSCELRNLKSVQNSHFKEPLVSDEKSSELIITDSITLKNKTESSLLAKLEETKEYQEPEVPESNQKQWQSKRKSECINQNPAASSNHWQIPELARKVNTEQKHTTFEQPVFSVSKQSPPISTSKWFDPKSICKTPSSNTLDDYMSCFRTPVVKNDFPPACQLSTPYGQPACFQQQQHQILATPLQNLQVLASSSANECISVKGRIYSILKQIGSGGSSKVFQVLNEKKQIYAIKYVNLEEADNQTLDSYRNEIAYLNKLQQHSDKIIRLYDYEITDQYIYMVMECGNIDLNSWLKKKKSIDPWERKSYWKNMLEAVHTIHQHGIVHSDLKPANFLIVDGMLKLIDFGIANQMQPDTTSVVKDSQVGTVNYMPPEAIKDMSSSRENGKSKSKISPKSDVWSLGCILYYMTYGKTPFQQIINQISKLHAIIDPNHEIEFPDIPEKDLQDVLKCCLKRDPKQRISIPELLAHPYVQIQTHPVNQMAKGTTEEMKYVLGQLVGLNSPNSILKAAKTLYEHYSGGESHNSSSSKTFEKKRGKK
Experimental: In order to evaluate the inhibitory activity of the compounds according to the present invention on LRRK2, LRRK2 (G2019S), DYRK1, CLK1 and TTK kinases, the following experiment was performed.
Example compounds were reacted with the purified human TTK (Signalchem #T20-10G) enzyme to evaluate the enzyme inhibitory ability as follows. The reaction buffer was used as the composition of 40 mM Tris-HCl pH7.4, 20 mM MgCl2, 0.1 mg/ml BSA (5× kinase buffer, Signalchem #K03-09) and 50 μM DTT (Signalchem #D86-09B), and the reaction of all test materials was performed on the reaction buffer. The compound was diluted with 10 mM DMSO stock in […] by a serial dilution method, and the enzyme activity was measured at the final compound concentrations of 1, 0.333333, 0.111111, 0.037037, 0.012346, 0.004115, 0.001372, 0.000457, 0.000152, 0.000051 and 0.000017 μM. In the test, the human TTK (7.5 ng) enzyme was reacted with the purified ATP (5 μM, Promega #V6930) and an MBP enzyme substrate (0.2 μg, Signalchem M42-51N) at 25° C. for 4 hours, and then the enzyme activity was identified using the in vitro ADP-Glo™ kinase assay (Promega #V6930). The enzyme activity reaction liquid, an ADP-Glo reaction liquid and an enzyme potency detection solution were reacted in a ratio of 2:2:1, and the degree of inhibition of enzyme activity was measured by luminescence. The degree of inhibition of enzyme activity according to the treatment concentrations of the respective compounds was calculated based on the luminescence degree of the enzyme activity of a solvent control group that was not treated with the compound, where the concentration of each compound to inhibit enzyme activity inhibition by 50% was determined as an IC50 (nM) value and obtained using Prism (Version 8.2, GraphPad) software.
as §4

Sequence of LRRK2 (G2019S) (Q5S007 970-2527 G2019S limits assumed): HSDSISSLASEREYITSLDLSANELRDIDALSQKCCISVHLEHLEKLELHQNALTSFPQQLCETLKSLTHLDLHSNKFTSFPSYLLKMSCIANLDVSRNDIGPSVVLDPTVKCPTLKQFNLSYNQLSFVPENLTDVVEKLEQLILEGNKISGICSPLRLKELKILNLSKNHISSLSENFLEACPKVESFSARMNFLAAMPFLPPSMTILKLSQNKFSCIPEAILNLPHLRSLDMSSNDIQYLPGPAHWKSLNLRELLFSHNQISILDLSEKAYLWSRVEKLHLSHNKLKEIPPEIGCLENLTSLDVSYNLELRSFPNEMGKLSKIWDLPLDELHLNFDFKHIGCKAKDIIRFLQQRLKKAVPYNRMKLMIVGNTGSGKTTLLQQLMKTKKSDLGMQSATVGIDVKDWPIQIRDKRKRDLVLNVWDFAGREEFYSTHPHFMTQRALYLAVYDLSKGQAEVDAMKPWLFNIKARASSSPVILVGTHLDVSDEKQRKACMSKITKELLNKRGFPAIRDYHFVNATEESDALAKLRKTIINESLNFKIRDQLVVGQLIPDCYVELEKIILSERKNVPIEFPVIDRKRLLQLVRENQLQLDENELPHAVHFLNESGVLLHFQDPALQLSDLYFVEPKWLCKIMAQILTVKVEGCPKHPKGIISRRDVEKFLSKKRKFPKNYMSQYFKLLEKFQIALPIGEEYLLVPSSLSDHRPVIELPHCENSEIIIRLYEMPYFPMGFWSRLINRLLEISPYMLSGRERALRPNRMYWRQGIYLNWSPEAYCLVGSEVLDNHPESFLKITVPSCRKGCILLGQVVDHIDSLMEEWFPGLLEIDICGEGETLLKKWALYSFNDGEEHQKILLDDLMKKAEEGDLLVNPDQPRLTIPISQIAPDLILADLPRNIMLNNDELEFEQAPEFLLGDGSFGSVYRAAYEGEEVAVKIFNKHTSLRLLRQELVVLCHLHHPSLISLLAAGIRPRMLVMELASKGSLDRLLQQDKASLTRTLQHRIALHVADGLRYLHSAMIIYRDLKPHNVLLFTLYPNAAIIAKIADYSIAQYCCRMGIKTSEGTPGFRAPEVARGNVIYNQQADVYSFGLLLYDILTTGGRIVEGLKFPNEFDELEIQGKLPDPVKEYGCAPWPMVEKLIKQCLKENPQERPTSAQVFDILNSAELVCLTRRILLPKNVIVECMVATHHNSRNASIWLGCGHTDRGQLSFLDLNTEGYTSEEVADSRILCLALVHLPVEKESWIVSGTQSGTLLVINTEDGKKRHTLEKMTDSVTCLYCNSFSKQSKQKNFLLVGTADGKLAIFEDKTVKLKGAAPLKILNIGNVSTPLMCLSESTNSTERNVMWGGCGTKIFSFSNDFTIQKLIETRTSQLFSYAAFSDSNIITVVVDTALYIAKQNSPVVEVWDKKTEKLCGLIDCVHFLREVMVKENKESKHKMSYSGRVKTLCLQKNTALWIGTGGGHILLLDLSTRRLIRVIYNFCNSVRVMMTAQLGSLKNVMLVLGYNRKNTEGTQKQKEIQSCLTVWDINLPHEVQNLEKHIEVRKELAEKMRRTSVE
T5 sequence (P49759 129-484 limits assumed): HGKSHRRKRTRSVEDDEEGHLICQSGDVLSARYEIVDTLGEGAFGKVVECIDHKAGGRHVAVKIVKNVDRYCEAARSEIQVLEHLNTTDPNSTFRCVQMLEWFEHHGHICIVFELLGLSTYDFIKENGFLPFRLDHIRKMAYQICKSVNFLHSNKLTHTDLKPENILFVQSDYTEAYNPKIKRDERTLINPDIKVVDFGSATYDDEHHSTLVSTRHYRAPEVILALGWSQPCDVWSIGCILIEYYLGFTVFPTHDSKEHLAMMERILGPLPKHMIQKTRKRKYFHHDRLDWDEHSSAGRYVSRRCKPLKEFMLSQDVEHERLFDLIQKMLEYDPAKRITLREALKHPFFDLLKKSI
T1 sequence (Q5S007 whole entry G2019S): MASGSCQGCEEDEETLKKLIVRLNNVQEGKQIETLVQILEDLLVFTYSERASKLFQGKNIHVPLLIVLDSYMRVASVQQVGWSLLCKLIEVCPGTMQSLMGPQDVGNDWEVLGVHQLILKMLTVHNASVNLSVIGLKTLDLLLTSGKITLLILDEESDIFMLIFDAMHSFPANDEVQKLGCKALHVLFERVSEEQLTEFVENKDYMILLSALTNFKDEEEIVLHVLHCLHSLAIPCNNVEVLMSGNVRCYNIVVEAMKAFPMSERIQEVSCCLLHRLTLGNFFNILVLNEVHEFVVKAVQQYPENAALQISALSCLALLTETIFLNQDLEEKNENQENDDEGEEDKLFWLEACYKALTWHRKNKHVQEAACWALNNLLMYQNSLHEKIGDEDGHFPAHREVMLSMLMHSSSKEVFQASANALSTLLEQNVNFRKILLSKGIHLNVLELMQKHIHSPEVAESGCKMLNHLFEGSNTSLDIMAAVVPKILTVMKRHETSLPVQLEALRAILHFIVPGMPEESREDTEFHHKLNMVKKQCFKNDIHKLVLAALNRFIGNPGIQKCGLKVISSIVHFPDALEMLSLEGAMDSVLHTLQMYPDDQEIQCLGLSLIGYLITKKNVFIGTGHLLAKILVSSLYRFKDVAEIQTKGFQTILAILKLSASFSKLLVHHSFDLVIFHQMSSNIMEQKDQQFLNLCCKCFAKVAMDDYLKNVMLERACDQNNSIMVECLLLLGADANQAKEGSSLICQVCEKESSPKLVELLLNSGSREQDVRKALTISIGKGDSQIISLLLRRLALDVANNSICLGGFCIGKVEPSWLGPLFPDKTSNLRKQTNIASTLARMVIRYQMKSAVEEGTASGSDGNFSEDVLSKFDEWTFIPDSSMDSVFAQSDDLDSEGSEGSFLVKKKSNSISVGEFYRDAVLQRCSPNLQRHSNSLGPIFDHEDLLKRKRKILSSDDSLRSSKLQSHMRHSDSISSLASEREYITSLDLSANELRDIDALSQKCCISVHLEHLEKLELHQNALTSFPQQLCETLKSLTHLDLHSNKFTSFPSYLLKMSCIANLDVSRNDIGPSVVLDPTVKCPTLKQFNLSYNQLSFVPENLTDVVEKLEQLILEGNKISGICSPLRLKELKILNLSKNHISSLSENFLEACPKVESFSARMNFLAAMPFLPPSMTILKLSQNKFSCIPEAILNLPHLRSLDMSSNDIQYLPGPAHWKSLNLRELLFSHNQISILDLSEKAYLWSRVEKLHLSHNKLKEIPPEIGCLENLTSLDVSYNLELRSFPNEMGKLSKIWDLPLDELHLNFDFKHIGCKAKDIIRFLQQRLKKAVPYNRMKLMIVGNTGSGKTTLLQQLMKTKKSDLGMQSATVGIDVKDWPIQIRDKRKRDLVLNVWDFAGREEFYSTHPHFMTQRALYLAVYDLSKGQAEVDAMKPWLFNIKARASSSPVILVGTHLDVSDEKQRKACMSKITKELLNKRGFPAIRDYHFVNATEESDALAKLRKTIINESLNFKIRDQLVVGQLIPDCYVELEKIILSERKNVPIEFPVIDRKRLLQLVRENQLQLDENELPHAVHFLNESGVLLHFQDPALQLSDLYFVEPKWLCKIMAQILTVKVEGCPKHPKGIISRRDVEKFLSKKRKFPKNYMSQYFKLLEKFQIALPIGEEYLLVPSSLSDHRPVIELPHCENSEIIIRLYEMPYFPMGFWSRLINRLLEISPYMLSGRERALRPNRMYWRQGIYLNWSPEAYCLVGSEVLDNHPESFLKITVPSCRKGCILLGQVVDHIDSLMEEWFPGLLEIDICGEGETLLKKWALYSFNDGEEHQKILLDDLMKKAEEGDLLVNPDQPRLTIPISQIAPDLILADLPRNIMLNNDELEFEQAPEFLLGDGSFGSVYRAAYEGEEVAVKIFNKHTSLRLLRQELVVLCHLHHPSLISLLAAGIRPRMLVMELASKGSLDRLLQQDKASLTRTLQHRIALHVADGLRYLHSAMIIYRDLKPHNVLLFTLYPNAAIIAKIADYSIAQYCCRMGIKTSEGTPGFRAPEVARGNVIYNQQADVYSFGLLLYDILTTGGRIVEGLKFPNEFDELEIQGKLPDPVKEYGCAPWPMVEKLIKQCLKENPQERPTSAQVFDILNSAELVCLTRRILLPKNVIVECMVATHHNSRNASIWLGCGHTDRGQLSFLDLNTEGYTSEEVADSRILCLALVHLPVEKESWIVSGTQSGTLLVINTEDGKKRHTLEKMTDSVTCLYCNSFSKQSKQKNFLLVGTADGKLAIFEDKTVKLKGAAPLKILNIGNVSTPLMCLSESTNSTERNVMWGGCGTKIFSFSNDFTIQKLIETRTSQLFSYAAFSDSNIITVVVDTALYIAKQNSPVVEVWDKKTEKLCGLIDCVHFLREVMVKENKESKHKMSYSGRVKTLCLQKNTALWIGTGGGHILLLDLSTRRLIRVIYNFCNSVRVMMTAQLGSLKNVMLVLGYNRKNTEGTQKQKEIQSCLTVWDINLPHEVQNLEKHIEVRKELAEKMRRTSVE
T3 sequence (P49759 whole entry, stated change not applied): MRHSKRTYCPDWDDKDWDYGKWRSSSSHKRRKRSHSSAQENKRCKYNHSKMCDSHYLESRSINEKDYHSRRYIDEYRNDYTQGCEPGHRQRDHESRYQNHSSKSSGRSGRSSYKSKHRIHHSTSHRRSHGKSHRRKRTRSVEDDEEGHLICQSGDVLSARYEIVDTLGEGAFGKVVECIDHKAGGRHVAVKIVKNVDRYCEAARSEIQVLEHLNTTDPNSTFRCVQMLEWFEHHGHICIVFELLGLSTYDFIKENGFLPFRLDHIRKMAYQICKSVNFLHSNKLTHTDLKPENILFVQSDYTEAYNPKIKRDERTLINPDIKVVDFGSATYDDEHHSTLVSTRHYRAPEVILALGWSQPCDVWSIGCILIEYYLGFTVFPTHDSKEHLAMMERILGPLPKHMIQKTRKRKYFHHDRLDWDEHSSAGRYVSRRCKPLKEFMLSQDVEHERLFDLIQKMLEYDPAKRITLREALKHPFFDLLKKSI
Sequence of LRRK2 (Q5S007 970-2527 limits assumed): as the sequence (Q5S007 970-2527 G2019S limits assumed) above, with S1050G counted along it

SMILES	IC50 (LRRK2 (G2019S)) [nM]	GI50 (SHP-77) [nM]	inhibition at 0.25 µM (human DYRK1A and Tau) [%]	inhibition at 0.5 µM (human DYRK1A and Tau) [%]	inhibition at 1 µM (human DYRK1A and Tau) [%]	IC50 [1] [nM]	IC50 [2] [nM]	IC50 [3] [nM]	GI50 (MDA-MB-231 cell line) [nM]	GI50 (MDA-MB-468 cell line) [nM]	IC50 [4] [nM]	IC50 (LRRK2) [nM]	IC50 (human GST-CLK1 (129-end)) [nM]	IC50 (TTK) [nM]
COc1cc(S(=O)(=O)N2CCC(N3C[C@@H]4C[C@H]3CO4)CC2)ccc1Nc1cc(C2CC2)c2c(C(F)(F)F)c[nH]c2n1 [Example 240, N-(4-((4-((1S,4S)-2-oxa-5-azabicyclo[2.2.1]heptan-5-yl)piperidin-1-yl)sulfonyl)-2-methoxyphenyl)-4-cyclopropyl-3-(trifluoromethyl)-1H-pyrrolo[2,3-b]pyridin-6-amine]	301 to 1000	301 to 1000	8.9	16.5	36.3	< 100	< 100	< 100	301 to 1000	–	–	–	–	–
CNc1cc(Nc2ccc(C(=O)N3CCOCC3)c3c2OCCO3)nc2[nH]cc(C(F)(F)F)c12 [Example 152, (8-((4-(methylamino)-3-(trifluoromethyl)-1H-pyrrolo[2,3-b]pyridin-6-yl)amino)-2,3-dihydrobenzo [b] [1,4]dioxin-5-yl)(morpholino) methanone]	< 100	–	–	–	–	–	–	–	–	101 to 300	< 100	< 100	< 100	–
COc1cc(S(=O)(=O)N2CCC(N3C[C@H]4C[C@@H]3CO4)CC2)ccc1Nc1cc(C2CC2)c2c(C(F)(F)F)c[nH]c2n1 [Example 239, N-(4-((4-((1R,4R)-2-oxa-5-azabicyclo [2.2.1]heptan-5-yl)piperidin-1-yl)sulfonyl)-2-methoxyphenyl)-4-cyclopropyl-3-(trifluoromethyl)-1H-pyrrolo[2,3-b]pyridin-6-amine]	301 to 1000	301 to 1000	22	50.9	71.2	< 100	< 100	< 100	301 to 1000	–	–	–	–	–
N#Cc1c[nH]c2nc(Nc3ccc(C(=O)N4CCC(N5CCOCC5)CC4)c4c3OCCO4)cc(NC3CCCCC3)c12 [Example 149, 4-(cyclohexylamino)-6-((8-(4-morpholinopiperidine-1-carbonyl)-2,3-dihydrobenzo [b] [1,4]dioxin-5-yl)amino)-1H-pyrrolo[2,3-b]pyridine-3-carbonitrile]	–	–	–	–	–	–	–	–	–	101 to 300	301 to 1000	–	301 to 1000	–
O=C(c1ccc(Nc2cc(C3CC3)c3c(C(F)(F)F)c[nH]c3n2)c2c1OCCO2)N1CCN(C2COC2)CC1 [Example 101, (8-((4-cyclopropyl-3-(trifluoromethyl)-1H-pyrrolo[2,3-b]pyridin-6-yl)amino)-2,3-dihydrobenzo[b] [1,4]dioxin-5-yl)(4-(oxetan-3-yl)piperazin-1-yl)methanone]	–	–	9.9	11.2	20.7	–	< 100	–	–	–	–	–	301 to 1000	< 100
N#Cc1c[nH]c2nc(Nc3ccc(C(=O)N4CCOCC4)c4c3OCCO4)cc(NC3CCCCC3)c12 [Example 150, N^4-(cyclohexylamino)-N^6-((8-(morpholine-4-carbonyl)-2,3-dihydrobenzo [b] [1,4]dioxin-5-yl)amino)-1H-pyrrolo[2,3-b]pyridine-3-carbonitrile]	–	–	–	–	–	–	–	–	–	51 to 100	301 to 1000	–	301 to 1000	–
